# Test results taken from ChEMBL document CHEMBL4011590, “Structure-activity relationship studies on 3,5-dinitrophenyl tetrazoles as antitubercular agents” (Eur J Med Chem, 2017).
# Legend:
# [1] = tested on: Mycobacterium tuberculosis; assay: Antimycobacterial activity against Mycobacterium tuberculosis H37Rv CNCTC My 331/88 after 14 days by micromethod; type: functional; settings: H37Rv CNCTC My 331/88, 336 h
# [2] = tested on: Mycobacterium tuberculosis; assay: Antimycobacterial activity against Mycobacterium tuberculosis H37Rv CNCTC My 331/88 after 21 days by micromethod; type: functional; settings: H37Rv CNCTC My 331/88, 504 h
# Mycobacterium avium [3] = assay: Antimycobacterial activity against Mycobacterium avium CNCTC My 330/80 after 14 days by micromethod; type: functional; settings: CNCTC My 330/80, 336 h
# Mycobacterium avium [4] = assay: Antimycobacterial activity against Mycobacterium avium CNCTC My 330/80 after 21 days by micromethod; type: functional; settings: CNCTC My 330/80, 504 h
# Mycobacterium kansasii [5] = assay: Antimycobacterial activity against Mycobacterium kansasii CNCTC My 235/80 after 7 days by micromethod; type: functional; settings: CNCTC My 235/80, 168 h
# Mycobacterium kansasii [6] = assay: Antimycobacterial activity against Mycobacterium kansasii CNCTC My 235/80 after 14 days by micromethod; type: functional; settings: CNCTC My 235/80, 336 h
# Mycobacterium kansasii [7] = assay: Antimycobacterial activity against Mycobacterium kansasii CNCTC My 235/80 after 21 days by micromethod; type: functional; settings: CNCTC My 235/80, 504 h
# Mycobacterium kansasii [8] = assay: Antimycobacterial activity against Mycobacterium kansasii isolate 6509/96 after 7 days by micromethod; type: functional; settings: isolate 6509/96, 168 h
# Mycobacterium kansasii [9] = assay: Antimycobacterial activity against Mycobacterium kansasii isolate 6509/96 after 14 days by micromethod; type: functional; settings: isolate 6509/96, 336 h
# Mycobacterium kansasii [10] = assay: Antimycobacterial activity against Mycobacterium kansasii isolate 6509/96 after 21 days by micromethod; type: functional; settings: isolate 6509/96, 504 h
# CHO-K1 = assay: Cytotoxicity against CHOK1 cells after 24 hrs by MTT assay; type: cell-based; settings: Cricetulus griseus, CHO-K1, 24 h
# Staphylococcus aureus [11] = assay: Antibacterial activity against Staphylococcus aureus ATCC 6538 after 24 hrs by broth microdilution method; type: functional; settings: ATCC 6538, 24 h
# Staphylococcus aureus [12] = assay: Antibacterial activity against Staphylococcus aureus ATCC 6538 after 48 hrs by broth microdilution method; type: functional; settings: ATCC 6538, 48 h
# Staphylococcus aureus [13] = assay: Antibacterial activity against methicillin-resistant Staphylococcus aureus HK5996/08 after 24 hrs by broth microdilution method; type: functional; settings: HK5996/08, 24 h
# Staphylococcus aureus [14] = assay: Antibacterial activity against methicillin-resistant Staphylococcus aureus HK5996/08 after 48 hrs by broth microdilution method; type: functional; settings: HK5996/08, 48 h
# [15] = tested on: Staphylococcus epidermidis; assay: Antibacterial activity against Staphylococcus epidermidis HK6966/08 after 24 hrs by broth microdilution method; type: functional; settings: HK6966/08, 24 h
# [16] = tested on: Staphylococcus epidermidis; assay: Antibacterial activity against Staphylococcus epidermidis HK6966/08 after 48 hrs by broth microdilution method; type: functional; settings: HK6966/08, 48 h
# Enterococcus sp. [17] = assay: Antibacterial activity against Enterococcus sp. HK14365/08 after 24 hrs by broth microdilution method; type: functional; settings: HK14365/08, 24 h
# Enterococcus sp. [18] = assay: Antibacterial activity against Enterococcus sp. HK14365/08 after 48 hrs by broth microdilution method; type: functional; settings: HK14365/08, 48 h
# Escherichia coli [19] = assay: Antibacterial activity against Escherichia coli ATCC 8739 after 24 hrs by broth microdilution method; type: functional; settings: ATCC 8739, 24 h
# Escherichia coli [20] = assay: Antibacterial activity against Escherichia coli ATCC 8739 after 48 hrs by broth microdilution method; type: functional; settings: ATCC 8739, 48 h
# Klebsiella pneumoniae [21] = assay: Antibacterial activity against Klebsiella pneumoniae HK11750/08 after 24 hrs by broth microdilution method; type: functional; settings: HK11750/08, 24 h
# Klebsiella pneumoniae [22] = assay: Antibacterial activity against Klebsiella pneumoniae HK11750/08 after 48 hrs by broth microdilution method; type: functional; settings: HK11750/08, 48 h
# Klebsiella pneumoniae [23] = assay: Antibacterial activity against extended spectrum beta-lactamase producing Klebsiella pneumoniae HK14368/08 after 24 hrs by broth microdilution method; type: functional; settings: HK14368/08, 24 h
# Klebsiella pneumoniae [24] = assay: Antibacterial activity against extended spectrum beta-lactamase producing Klebsiella pneumoniae HK14368/08 after 48 hrs by broth microdilution method; type: functional; settings: HK14368/08, 48 h
# Pseudomonas aeruginosa [25] = assay: Antibacterial activity against Pseudomonas aeruginosa ATCC 9027 after 24 hrs by broth microdilution method; type: functional; settings: ATCC 9027, 24 h
# Pseudomonas aeruginosa [26] = assay: Antibacterial activity against Pseudomonas aeruginosa ATCC 9027 after 48 hrs by broth microdilution method; type: functional; settings: ATCC 9027, 48 h
# Candida albicans [27] = assay: Antifungal activity against Candida albicans ATCC 44859 after 24 hrs by broth microdilution method; type: functional; settings: ATCC 44859, 24 h
# Candida albicans [28] = assay: Antifungal activity against Candida albicans ATCC 44859 after 48 hrs by broth microdilution method; type: functional; settings: ATCC 44859, 48 h
# Candida tropicalis [29] = assay: Antifungal activity against Candida tropicalis 156 after 24 hrs by broth microdilution method; type: functional; settings: Candida tropicalis, 156, 24 h
# Candida tropicalis [30] = assay: Antifungal activity against Candida tropicalis 156 after 48 hrs by broth microdilution method; type: functional; settings: Candida tropicalis, 156, 48 h
# Pichia kudriavzevii [31] = assay: Antifungal activity against Candida krusei E28 after 24 hrs by broth microdilution method; type: functional; settings: E28, 24 h
# Pichia kudriavzevii [32] = assay: Antifungal activity against Candida krusei E28 after 48 hrs by broth microdilution method; type: functional; settings: E28, 48 h
# Nakaseomyces glabratus [33] = assay: Antifungal activity against Candida glabrata 20/I after 24 hrs by broth microdilution method; type: functional
# Nakaseomyces glabratus [34] = assay: Antifungal activity against Candida glabrata 20/I after 48 hrs by broth microdilution method; type: functional
# Trichosporon asahii [35] = assay: Antifungal activity against Trichosporon asahii 1188 after 24 hrs by broth microdilution method; type: functional; settings: Trichosporon asahii, 1188, 24 h
# Trichosporon asahii [36] = assay: Antifungal activity against Trichosporon asahii 1188 after 48 hrs by broth microdilution method; type: functional; settings: Trichosporon asahii, 1188, 48 h
# Aspergillus fumigatus [37] = assay: Antifungal activity against Aspergillus fumigatus 231 after 24 hrs by broth microdilution method; type: functional; settings: Aspergillus fumigatus, 231, 24 h
# Aspergillus fumigatus [38] = assay: Antifungal activity against Aspergillus fumigatus 231 after 48 hrs by broth microdilution method; type: functional; settings: Aspergillus fumigatus, 231, 48 h
# Lichtheimia corymbifera [39] = assay: Antifungal activity against Absidia corymbifera 272 after 24 hrs by broth microdilution method; type: functional; settings: Lichtheimia corymbifera, 272, 24 h
# Lichtheimia corymbifera [40] = assay: Antifungal activity against Absidia corymbifera 272 after 48 hrs by broth microdilution method; type: functional; settings: Lichtheimia corymbifera, 272, 48 h
# [41] = tested on: Trichophyton mentagrophytes; assay: Antifungal activity against Trichophyton mentagrophytes 445 after 72 hrs by broth microdilution method; type: functional; settings: Trichophyton mentagrophytes, 445, 72 h
# [42] = tested on: Trichophyton mentagrophytes; assay: Antifungal activity against Trichophyton mentagrophytes 445 after 120 hrs by broth microdilution method; type: functional; settings: Trichophyton mentagrophytes, 445, 120 h
smiles,measurement,setting,value
O=[N+]([O-])c1cc(-c2nnnn2Cc2ccccc2)cc([N+](=O)[O-])c1,MIC99,[1],2 µM
same,MIC99,[2],2 µM
same,MIC99,Mycobacterium avium [3],16 µM
same,MIC99,Mycobacterium avium [4],32 µM
same,MIC99,Mycobacterium kansasii [5],8 µM
same,MIC99,Mycobacterium kansasii [6],8 µM
same,MIC99,Mycobacterium kansasii [7],8 µM
same,MIC99,Mycobacterium kansasii [8],2 µM
same,MIC99,Mycobacterium kansasii [9],4 µM
same,MIC99,Mycobacterium kansasii [10],4 µM
same,IC50,CHO-K1,18 µM
same,MIC,Staphylococcus aureus [11],62.5 µM
same,MIC,Staphylococcus aureus [12],62.5 µM
same,MIC,Staphylococcus aureus [13],31.2 µM
same,MIC,Staphylococcus aureus [14],15.6 µM
same,MIC,[15],62.5 µM
same,MIC,[16],62.5 µM
same,MIC,Enterococcus sp. [17],62.5 µM
same,MIC,Enterococcus sp. [18],62.5 µM
same,MIC,Escherichia coli [19],125 µM
same,MIC,Escherichia coli [20],62.5 µM
same,MIC,Klebsiella pneumoniae [21],250 µM
same,MIC,Klebsiella pneumoniae [22],125 µM
same,MIC,Klebsiella pneumoniae [23],250 µM
same,MIC,Klebsiella pneumoniae [24],125 µM
same,MIC,Pseudomonas aeruginosa [25],500 µM
same,MIC,Pseudomonas aeruginosa [26],500 µM
same,MIC,Candida albicans [27],62.5 µM
same,MIC,Candida albicans [28],62.5 µM
same,MIC,Candida tropicalis [29],250 µM
same,MIC,Candida tropicalis [30],250 µM
same,MIC,Pichia kudriavzevii [31],250 µM
same,MIC,Pichia kudriavzevii [32],250 µM
same,MIC,Nakaseomyces glabratus [33],250 µM
same,MIC,Nakaseomyces glabratus [34],250 µM
same,MIC,Trichosporon asahii [35],250 µM
same,MIC,Trichosporon asahii [36],250 µM
same,MIC,Aspergillus fumigatus [37],> 500 µM
same,MIC,Aspergillus fumigatus [38],> 500 µM
same,MIC,Lichtheimia corymbifera [39],500 µM
same,MIC,Lichtheimia corymbifera [40],500 µM
same,MIC,[41],500 µM
same,MIC,[42],500 µM
O=[N+]([O-])c1cc(-c2nnn(Cc3ccc(Cl)cc3)n2)cc([N+](=O)[O-])c1,MIC99,[1],0.25 µM
same,MIC99,[2],0.25 µM
same,MIC99,Mycobacterium avium [3],8 µM
same,MIC99,Mycobacterium avium [4],8 µM
same,MIC99,Mycobacterium kansasii [5],0.25 µM
same,MIC99,Mycobacterium kansasii [6],1 µM
same,MIC99,Mycobacterium kansasii [7],2 µM
same,MIC99,Mycobacterium kansasii [8],0.5 µM
same,MIC99,Mycobacterium kansasii [9],1 µM
same,MIC99,Mycobacterium kansasii [10],2 µM
same,IC50,CHO-K1,170 µM
same,MIC,Staphylococcus aureus [11],31.2 µM
same,MIC,Staphylococcus aureus [12],31.2 µM
same,MIC,Staphylococcus aureus [13],> 500 µM
same,MIC,Staphylococcus aureus [14],> 500 µM
same,MIC,[15],15.6 µM
same,MIC,[16],15.6 µM
same,MIC,Enterococcus sp. [17],> 500 µM
same,MIC,Enterococcus sp. [18],> 500 µM
same,MIC,Escherichia coli [19],> 500 µM
same,MIC,Escherichia coli [20],> 500 µM
same,MIC,Klebsiella pneumoniae [21],> 500 µM
same,MIC,Klebsiella pneumoniae [22],> 500 µM
same,MIC,Klebsiella pneumoniae [23],> 500 µM
same,MIC,Klebsiella pneumoniae [24],> 500 µM
same,MIC,Pseudomonas aeruginosa [25],> 500 µM
same,MIC,Pseudomonas aeruginosa [26],> 500 µM
same,MIC,Candida albicans [27],> 500 µM
same,MIC,Candida albicans [28],> 500 µM
same,MIC,Candida tropicalis [29],250 µM
same,MIC,Candida tropicalis [30],250 µM
same,MIC,Pichia kudriavzevii [31],> 500 µM
same,MIC,Pichia kudriavzevii [32],> 500 µM
same,MIC,Nakaseomyces glabratus [33],> 500 µM
same,MIC,Nakaseomyces glabratus [34],> 500 µM
same,MIC,Trichosporon asahii [35],500 µM
same,MIC,Trichosporon asahii [36],500 µM
same,MIC,Aspergillus fumigatus [37],> 500 µM
same,MIC,Aspergillus fumigatus [38],> 500 µM
same,MIC,Lichtheimia corymbifera [39],> 500 µM
same,MIC,Lichtheimia corymbifera [40],> 500 µM
same,MIC,[41],> 500 µM
same,MIC,[42],> 500 µM
